What was measured:
[1] = test system: MDA-MB-231 cells; test: Aldolase A secretion and expression in MDA-MB-231 cells treated with purified azurin; type: cell-based, human; settings: MDA-MB-231, purified azurin 100 nM, 10 μM, 1 mM, 30 min
Procedure: FIG. 18A-18G: Induction of aldolase A secretion by host cells in the presence of P. aeruginosa. 18A. […] Aldolase secretion varied between the co-cultures with cancer and normal cells. […] 18B Correlation between the aldolase A and azurin levels in co-cultures of P. aeruginosa with cancer or normal cells. […] Secretion of aldolase into the culture supernatant was assessed by western blot analysis. 18D P. aeruginosa (OD=0.3) was treated with purified aldolase A protein at concentrations of 1 nM, 10 nM, 100 nM, and 1 μM for 30 min. […] MDA-MB-231 (18E) and Mel-2 (18F) cells were treated with purified azurin protein at concentrations of 100 nM, 10 μM, and 1 mM for 30 min. […] 18G Aldolase A secretion in the presence of P. aeruginosa is distance-dependent. […]
(§1) Aldolase A gene expression in MDA-MB-231 (black bars) and Mel-2 (white bars) cells was determined by RT-PCR (22A). […] 22B: Intracellular levels of aldolase A were assessed by western blot analysis with an anti-aldolase A antibody. […]
(§2) Western blotting: After running the NuPAGE, proteins were transferred to PVDF membranes (BioRad Laboratories Inc, Hercules, CA) which were blocked in SuperBlock (T20 TBS buffer, Thermo Fisher) for one hour. […] The signal was detected using enhanced chemiluminescence (ECL, Thermo Fisher Scientific). Quantitative analysis of the bands was performed with a computer-assisted imaging densitometer (UN-SCAN-IT gel version 5.1). […]

[2] = test system: Mel-2 cells; test: Aldolase A secretion and expression in Mel-2 cells treated with purified azurin; type: cell-based, human; settings: Mel-2, purified azurin 100 nM, 10 μM, 1 mM, 30 min
Procedure: FIG. 18A-18G: Induction of aldolase A secretion by host cells in the presence of P. aeruginosa. 18A. Human host cells (cancer and normal) and P. aeruginosa were co-incubated for 30 min at a concentration of 500,000 human cells/ml with P. aeruginosa at OD=0.3. Aldolase secretion varied between the co-cultures with cancer and normal cells. […] 18B Correlation between the aldolase A and azurin levels in co-cultures of P. aeruginosa with cancer or normal cells. 18C Cancer cells (Mel-2 and MDA-MB-231) and P. aeruginosa (WT and azunull mutant) were co-incubated for 30 min at a concentration of 500,000 human cells/ml with P. aeruginosa at OD=0.3. Secretion of aldolase into the culture supernatant was assessed by western blot analysis. […]
as §1, §2

## azurin: 14 kDa periplasmic copper protein of 128 amino acids from P. aeruginosa; purified recombinant
[1]
  aldolase A gene expression and intracellular levels: without increasing gene expression or intracellular levels of aldolase A
  aldolase A secretion into culture medium (western blot): secreted a considerable amount of human aldolase A
[2]
  aldolase A gene expression and intracellular levels: without increasing gene expression or intracellular levels of aldolase A
  aldolase A secretion into culture medium (western blot): secreted a considerable amount of human aldolase A

From patent publication US20250179126A1, “A NOVEL PEPTIDE FROM A PHOTOSYNTHETIC BACERIUM DIRECTLY TARGETS MITOCHONDRIA TO TRIGGER APOPTOSIS IN ADVANCED PROSTATE CANCER CELLS” (priority 2022, published 2025)
